# Laboratory results taken from patent US12692254B2, “Benzimidazole inhibitors of PAD enzymes” (BRISTOL-MYERS SQUIBB COMPANY, priority 2018, dated 2026).
# Molecular target: human PAD4 (hPAD4) (Homo sapiens, UniProt Q9UM07)
# Test: RFMS human PAD4 functional assay (rapid-fire mass spectrum)
# Type: biochemical
# Conditions: 5 nM hPAD4 enzyme, 250 μM BAEE, 50 μM Calcium; 30 min preincubation, 90 min reaction at 37° C.
# Outline: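 PAD4 (10 nM) preincubated 30 min with compound (top final 50 μM), then BAEE substrate added in pH 7.5 HEPES buffer with DTT, 50 μM calcium, TPEN; 90 min at 37° C. After TCA quench, citrulline derivatized with phenyl glyoxal (4 mM final, 30 min, 37° C) and quantified by RapidFire MS against internal standard.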
# Chain of human PAD4 (hPAD4) (Q9UM07 whole entry): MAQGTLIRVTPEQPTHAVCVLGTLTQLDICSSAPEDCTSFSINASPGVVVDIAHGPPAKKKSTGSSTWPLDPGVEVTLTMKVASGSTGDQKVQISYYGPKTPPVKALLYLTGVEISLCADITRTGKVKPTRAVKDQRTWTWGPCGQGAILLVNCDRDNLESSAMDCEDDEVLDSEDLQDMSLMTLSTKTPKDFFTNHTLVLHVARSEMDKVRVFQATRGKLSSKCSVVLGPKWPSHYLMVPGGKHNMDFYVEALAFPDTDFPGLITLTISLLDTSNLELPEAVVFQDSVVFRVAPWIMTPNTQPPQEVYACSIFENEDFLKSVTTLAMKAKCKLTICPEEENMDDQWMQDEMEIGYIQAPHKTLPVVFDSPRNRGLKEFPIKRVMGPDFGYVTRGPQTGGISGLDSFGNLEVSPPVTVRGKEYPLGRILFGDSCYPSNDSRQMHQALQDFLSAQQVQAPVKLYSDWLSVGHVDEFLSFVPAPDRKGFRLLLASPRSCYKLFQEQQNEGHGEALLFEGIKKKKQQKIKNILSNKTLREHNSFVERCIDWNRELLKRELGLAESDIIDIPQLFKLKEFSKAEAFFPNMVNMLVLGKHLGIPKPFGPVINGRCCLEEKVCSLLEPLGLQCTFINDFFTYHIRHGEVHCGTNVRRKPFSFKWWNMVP
row,Compound,IC50 [nM]
1,"COc1cc(C(=O)N2C[C@H]3CC[C@@H]2[C@@H]3N)cc2nc(-c3cc4cccnc4n3CC3CC3)n(C[C@H]3CCN(c4cncc(C#N)c4)C3)c12 [Example 195, 5-[(3S)-3-({5-[(1R,4R,7R)-7-amino-2-azabicyclo[2.2.1]heptane-2-carbonyl]-2-[1-(cyclopropylmethyl)-1H-pyrrolo[2,3-b]pyridin-2-yl]-7-methoxy-1H-1,3-benzodiazol-1-yl}methyl)pyrrolidin-1-yl]pyridine-3-carbonitrile]",14
2,"COc1ccc2cc(-c3nc4cc(C(=O)N5C[C@H]6CC[C@@H]5[C@@H]6N)cc(OC)c4n3CC3CN(c4ccnc(C#N)n4)C3)n(CC3CC3)c2n1 [Example 2, 4-(3-((5-((1R,4R,7R)-7-amino-2-azabicyclo[2.2.1]heptane-2-carbonyl)-2-(1-(cyclopropylmethyl)-6-methoxy-1H-pyrrolo[2,3-b]pyridin-2-yl)-7-methoxy-1H-benzo[d]imidazol-1-yl)methyl)azetidin-1-yl)pyrimidine-2-carbonitrile]",49
3,"COc1cc(C(=O)N2C[C@H]3CC[C@@H]2[C@@H]3N)cc2nc(-c3cc4ccccc4n3CC3CC3)n(CC3CN(C(=O)c4ccc(Cl)cc4)C3)c12 [Example 166, (1R,4R,7R)-2-(1-{[1-(4-chlorobenzoyl)azetidin-3-yl]methyl}-2-[1-(cyclopropylmethyl)-1H-indol-2-yl]-7-methoxy-1H-1,3-benzodiazole-5-carbonyl)-2-azabicyclo[2.2.1]heptan-7-amine]",31
4,"COc1cc(C(=O)N2C[C@H]3CC[C@@H]2[C@@H]3N)cc2nc(-c3cc4cccnc4n3CC3CC3)n(CC3CN(C(=O)c4ccc(C#N)cc4)C3)c12 [Example 112, 4-[3-({5-[(1R,4R,7R)-7-amino-2-azabicyclo[2.2.1]heptane-2-carbonyl]-2-[1-(cyclopropylmethyl)-1H-pyrrolo[2,3-b]pyridin-2-yl]-7-methoxy-1H-1,3-benzodiazol-1-yl}methyl)azetidine-1-carbonyl]benzonitrile]",51
5,"COc1cc(C(=O)N2C[C@H]3CC[C@@H]2[C@@H]3N)cc2nc(-c3cc4cccnc4n3CC3CC3)n(C3CN(C(=O)c4ccnc(O)c4)C3)c12 [Example 190, 4-(3-{5-[(1R,4R,7R)-7-amino-2-azabicyclo[2.2.1]heptane-2-carbonyl]-2-[1-(cyclopropylmethyl)-1H-pyrrolo[2,3-b]pyridin-2-yl]-7-methoxy-1H-1,3-benzodiazol-1-yl}azetidine-1-carbonyl)pyridin-2-ol]",782
6,"CCOC(=O)N1CC(Cn2c(-c3cc4cccnc4n3CC3CC3)nc3cc(C(=O)N4C[C@H]5CC[C@@H]4[C@@H]5N)cc(OC)c32)C1 [Example 130, ethyl 3-({5-[(1R,4R,7R)-7-amino-2-azabicyclo[2.2.1]heptane-2-carbonyl]-2-[1-(cyclopropylmethyl)-1H-pyrrolo[2,3-b]pyridin-2-yl]-7-methoxy-1H-1,3-benzodiazol-1-yl}methyl)azetidine-1-carboxylate]",128
7,"CCC#CC(=O)N1CC(Cn2c(-c3cc4cccnc4n3CC3CC3)nc3cc(C(=O)N4C[C@H]5CC[C@@H]4[C@@H]5N)cc(OC)c32)C1 [Example 108, 1-[3-({5-[(1R,4R,7R)-7-amino-2-azabicyclo[2.2.1]heptane-2-carbonyl]-2-[1-(cyclopropylmethyl)-1H-pyrrolo[2,3-b]pyridin-2-yl]-7-methoxy-1H-1,3-benzodiazol-1-yl}methyl)azetidin-1-yl]pent-2-yn-1-one]",40
8,"COc1ccc2cc(-c3nc4cc(C(=O)N5C[C@H]6CC[C@@H]5[C@@H]6N)cc(OC)c4n3CC3CN(c4cccnc4C#N)C3)n(CC3CC3)c2n1 [Example 35, 3-[3-({5-[(1R,4R,7R)-7-amino-2-azabicyclo[2.2.1]heptane-2-carbonyl]-2-[1-(cyclopropylmethyl)-6-methoxy-1H-pyrrolo[2,3-b]pyridin-2-yl]-7-methoxy-1H-1,3-benzodiazol-1-yl}methyl)azetidin-1-yl]pyridine-2-carbonitrile]",90
9,"COc1cc(C(=O)N2C[C@H]3CC[C@@H]2[C@@H]3N)cc2nc(-c3cc4cccnc4n3CC3CC3)n(CC3CN(C(=O)c4ccncc4)C3)c12 [Example 117, (1R,4R,7R)-2-{2-[1-(cyclopropylmethyl)-1H-pyrrolo[2,3-b]pyridin-2-yl]-7-methoxy-1-{[1-(pyridine-4-carbonyl)azetidin-3-yl]methyl}-1H-1,3-benzodiazole-5-carbonyl}-2-azabicyclo[2.2.1]heptan-7-amine]",66
10,"COc1cc(C(=O)N2C[C@H]3CC[C@@H]2[C@@H]3N)cc2nc(-c3cc4cccnc4n3CC3CC3)n(CC3CN(c4cnc(C#N)nc4)C3)c12 [Example 17, 5-[3-({5-[(1R,4R,7R)-7-amino-2-azabicyclo[2.2.1]heptane-2-carbonyl]-2-[1-(cyclopropylmethyl)-1H-pyrrolo[2,3-b]pyridin-2-yl]-7-methoxy-1H-1,3-benzodiazol-1-yl}methyl)azetidin-1-yl]pyrimidine-2-carbonitrile]",50
11,"COc1cc(C(=O)N2C[C@H]3CC[C@@H]2[C@@H]3N)cc2nc(-c3cc4ccccc4n3CC3CC3)n(CC3CN(c4cncnc4C#N)C3)c12 [Example 19, 5-[3-({5-[(1R,4R,7R)-7-amino-2-azabicyclo[2.2.1]heptane-2-carbonyl]-2-[1-(cyclopropylmethyl)-1H-indol-2-yl]-7-methoxy-1H-1,3-benzodiazol-1-yl}methyl)azetidin-1-yl]pyrimidine-4-carbonitrile]",55
12,"COc1cc(C(=O)N2CC3CCC2[C@@H]3N)cc2nc(-c3cc4cccnc4n3CC3CC3)n(CC3CCN(c4ncccn4)C3)c12 (stereo in doubt) [Example 234, (1R,4R,7R)-2-{2-[1-(cyclopropylmethyl)-1H-pyrrolo[2,3-b]pyridin-2-yl]-7-methoxy-1-{[(3R)-1-(pyrimidin-2-yl)pyrrolidin-3-yl]methyl}-1H-1,3-benzodiazole-5-carbonyl}-2-azabicyclo[2.2.1]heptan-7-amine]",332

# Other lines, results leading:
row,IC50 [nM],Compound
1,146,"COc1cc(C(=O)N2CC3CCC2[C@@H]3N)cc2nc(-c3cc4ccccc4n3CC(F)F)n(Cc3cnn(C)c3)c12 (stereo partly drawn) [Example 502, (7R)-2-{2-[1-(2,2-difluoroethyl)-1H-indol-2-yl]-7-methoxy-1-[(1-methyl-1H-pyrazol-4-yl)methyl]-1H-1,3-benzodiazole-5-carbonyl}-2-azabicyclo[2.2.1]heptan-7-amine]"
2,2880,"COc1cc(C(=O)N2CC3CCC2[C@@H]3N)cc2nc(-c3cc4cccnc4n3CC3CC3)n([C@H]3C[C@@H](NC(C)=O)C3)c12 (stereo partly drawn) [Example 304, N-[(1s,3s)-3-{5-[(1R,4R,7R)-7-ammo-2-azabicyclo[2.2.1]heptane-2-carbonyl]-2-[1-(cyclopropylmethyl)-1H-pyrrolo[2,3-b]pyridin-2-yl]-7-methoxy-1H-1,3-benzodiazol-1-yl}cyclobutyl]acetamide]"
3,33,"COc1cc(C(=O)C2C[C@H]3CC[C@H]2[C@@H]3N)cc2nc(-c3cc4ccccc4n3CC3CC3)n(C[C@H]3CCNC3)c12 (stereo partly drawn) [Example 273, (1R,4R,7R)-2-{2-[1-(cyclopropylmethyl)-1H-indol-2-yl]-7-methoxy-1-{[(3S)-pyrrolidin-3-yl]methyl}-1H-1,3-benzodiazole-5-carbonyl}bicyclo[2.2.1]heptan-7-amine]"
4,129,"COc1cc(C(=O)N2C[C@H](N)C[C@@H](F)C2)cc2nc(-c3cc4cccnc4n3CC3CC3)n(CC3(C)CN(C(=O)c4ccccc4)C3)c12 [Example 469, (3R,5R)-1-{1-[(1-benzoyl-3-methylazetidin-3-yl)methyl]-2-[1-(cyclopropylmethyl)-1H-pyrrolo[2,3-b]pyridin-2-yl]-7-methoxy-1H-1,3-benzodiazole-5-carbonyl}-5-fluoropiperidin-3-amine]"
5,32,"COc1cc(C(=O)N2CC3CCC2[C@@H]3N)cc2nc(-c3cc4cccnc4n3CC3CC3)n(Cc3cnn(-c4cncc(F)c4)c3)c12 (stereo partly drawn) [Example 372, (7R)-2-{2-[1-(cyclopropylmethyl)-1H-pyrrolo[2,3-b]pyridin-2-yl]-1-{[1-(5-fluoropyridin-3-yl)-1H-pyrazol-4-yl]methyl}-7-methoxy-1H-1,3-benzodiazole-5-carbonyl}-2-azabicyclo[2.2.1]heptan-7-amine]"
6,225,"COc1cc(C(=O)N2C[C@H](N)C[C@@H](F)C2)cc2nc(-c3cc4ccccc4n3CC3CC3)n(Cc3cnn(C)c3C)c12 [Example 506, (3R,5R)-1-{2-[1-(cyclopropylmethyl)-1H-indol-2-yl]-1-[(1,5-dimethyl-1H-pyrazol-4-yl)methyl]-7-methoxy-1H-1,3-benzodiazole-5-carbonyl}-5-fluoropiperidin-3-amine]"
7,2060,"COc1cc(C(=O)N2CCC[C@@H](N)C2)cc2nc(-c3cc4cccnc4n3CC3CC3)n(CCNS(C)(=O)=O)c12 [Example 292, N-(2-{5-[(3R)-3-aminopiperidine-1-carbonyl]-2-[1-(cyclopropylmethyl)-1H-pyrrolo[2,3-b]pyridin-2-yl]-7-methoxy-1H-1,3-benzodiazol-1-yl}ethyl)methanesulfonamide]"
8,125,"COc1cc(C(=O)N2CC3CCC2[C@@H]3N)cc2nc(-c3cc4cccnc4n3CC3CC3)n(Cc3ccn(C)n3)c12 (stereo partly drawn) [Example 499, (7R)-2-{2-[1-(cyclopropylmethyl)-1H-pyrrolo[2,3-b]pyridin-2-yl]-7-methoxy-1-[(1-methyl-1H-pyrazol-3-yl)methyl]-1H-1,3-benzodiazole-5-carbonyl}-2-azabicyclo[2.2.1]heptan-7-amine]"
9,70,N#Cc1ccc(C(=O)N2CC(Cn3c(-c4cc5cccnc5n4CC4CC4)nc4cc(C(=O)N5CC6CCC5[C@@H]6N)cc(F)c43)C2)cc1 (stereo partly shown) [Example 462]
10,1160,"COc1cc(C(=O)N2C[C@H]3CC[C@@H]2[C@@H]3N)cc2nc(-c3cc4cccnc4n3CC3CC3)n(C3CCNCC3)c12 [Example 309, (1R,4R,7R)-2-{2-[1-(cyclopropylmethyl)-1H-pyrrolo[2,3-b]pyridin-2-yl]-7-methoxy-1-(piperidin-4-yl)-1H-1,3-benzodiazole-5-carbonyl}-2-azabicyclo[2.2.1]heptan-7-amine]"
